# Assay results taken from ChEMBL document CHEMBL1909046, “DrugMatrix in vitro pharmacology data”.
# Target: T1, Neuropeptide Y receptor type 2 (Homo sapiens, UniProt P49146); further: in other assays of this panel Not Active means under 50% inhibition at 10 µM
# T1 sequence (P49146 whole entry): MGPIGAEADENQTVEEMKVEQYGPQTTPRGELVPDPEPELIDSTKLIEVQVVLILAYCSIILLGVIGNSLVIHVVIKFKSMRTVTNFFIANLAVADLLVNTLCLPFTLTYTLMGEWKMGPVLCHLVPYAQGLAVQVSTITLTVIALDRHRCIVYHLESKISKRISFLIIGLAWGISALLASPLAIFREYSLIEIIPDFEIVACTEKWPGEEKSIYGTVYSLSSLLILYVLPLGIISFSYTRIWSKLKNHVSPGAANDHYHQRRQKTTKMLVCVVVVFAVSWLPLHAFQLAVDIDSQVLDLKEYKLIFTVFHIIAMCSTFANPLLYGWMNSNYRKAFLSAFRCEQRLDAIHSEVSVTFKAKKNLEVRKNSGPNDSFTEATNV
# Format: cell membranes, Membrane
# Conditions: kan-ts
Compound,IC50,Ki
CCOc1cc(N)c(Cl)cc1C(=O)NCC1CN(Cc2ccc(F)cc2)CCO1 (configuration not stated) [MOSAPRIDE],Not Active,
CC(=O)O[C@]1(C(C)=O)CC[C@H]2[C@@H]3C[C@H](C)C4=CC(=O)CC[C@]4(C)[C@H]3CC[C@@]21C [MEDROXYPROGESTERONE ACETATE],Not Active,
OC[C@@H](O)[C@@H](O)[C@H](O)[C@H](O)CO [MANNITOL],Not Active,
CC(Cl)(Cl)Cl [TRICHLOROETHANE],Not Active,
LEAD(IV) ACETATE,Not Active,Not Active
O=C(c1ccccc1)c1ccc2n1CCC2C(=O)O (configuration not stated) [KETOROLAC],Not Active,

# Target: 5-hydroxytryptamine receptor 1B (Rattus norvegicus, UniProt P28564); further: in other assays of this panel Not Active means under 50% inhibition at 10 µM
# Sequence (P28564 whole entry): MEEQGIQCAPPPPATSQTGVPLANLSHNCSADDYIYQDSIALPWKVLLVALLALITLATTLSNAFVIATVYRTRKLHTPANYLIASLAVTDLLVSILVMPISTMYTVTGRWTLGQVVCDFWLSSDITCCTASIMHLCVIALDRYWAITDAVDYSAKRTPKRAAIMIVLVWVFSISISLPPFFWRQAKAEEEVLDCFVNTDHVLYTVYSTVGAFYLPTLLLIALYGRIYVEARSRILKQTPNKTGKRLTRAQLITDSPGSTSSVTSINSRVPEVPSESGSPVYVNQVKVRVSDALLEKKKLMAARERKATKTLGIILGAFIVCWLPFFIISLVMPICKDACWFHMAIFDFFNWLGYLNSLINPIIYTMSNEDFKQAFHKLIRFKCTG
# Format: cell membranes, Wistar, Cerebral cortex, Membrane
# Conditions: not given
Compound,IC50,Ki
CCOc1cc(N)c(Cl)cc1C(=O)NCC1CN(Cc2ccc(F)cc2)CCO1 (configuration not stated) [MOSAPRIDE],Not Active,
CC(=O)O[C@]1(C(C)=O)CC[C@H]2[C@@H]3C[C@H](C)C4=CC(=O)CC[C@]4(C)[C@H]3CC[C@@]21C [MEDROXYPROGESTERONE ACETATE],Not Active,
OC[C@@H](O)[C@@H](O)[C@H](O)[C@H](O)CO [MANNITOL],Not Active,
CC(Cl)(Cl)Cl [TRICHLOROETHANE],Not Active,
LEAD(IV) ACETATE,Not Active,Not Active
O=C(c1ccccc1)c1ccc2n1CCC2C(=O)O (configuration not stated) [KETOROLAC],Not Active,

# Target: Epidermal growth factor receptor (Homo sapiens, UniProt P00533)
# Experiment: DRUGMATRIX: Protein Tyrosine Kinase, EGF Receptor enzyme inhibition (substrate: Poly(Glu:Tyr))
# Format: cell-based, Insect cells
# Conditions: insect cells; Not Active = under 50% inhibition at 10 µM
Compound,IC50,Ki
CCOc1cc(N)c(Cl)cc1C(=O)NCC1CN(Cc2ccc(F)cc2)CCO1 (configuration not stated) [MOSAPRIDE],Not Active,
CC(=O)O[C@]1(C(C)=O)CC[C@H]2[C@@H]3C[C@H](C)C4=CC(=O)CC[C@]4(C)[C@H]3CC[C@@]21C [MEDROXYPROGESTERONE ACETATE],Not Active,
OC[C@@H](O)[C@@H](O)[C@H](O)[C@H](O)CO [MANNITOL],Not Active,
CC(Cl)(Cl)Cl [TRICHLOROETHANE],Not Active,
LEAD(IV) ACETATE,Not Active,Not Active
O=C(c1ccccc1)c1ccc2n1CCC2C(=O)O (configuration not stated) [KETOROLAC],Not Active,

# Test system: not listed separately
# Experiment: DRUGMATRIX: Glutamate, NMDA, Agonism radioligand binding (ligand: [3H] CGP-39653)
# Format: cell membranes, Rattus norvegicus, Wistar, Cerebral cortex, Membrane
# Conditions: Not Active = under 50% inhibition at 10 µM
Compound,IC50,Ki
CCOc1cc(N)c(Cl)cc1C(=O)NCC1CN(Cc2ccc(F)cc2)CCO1 (configuration not stated) [MOSAPRIDE],Not Active,Not Active
CC(=O)O[C@]1(C(C)=O)CC[C@H]2[C@@H]3C[C@H](C)C4=CC(=O)CC[C@]4(C)[C@H]3CC[C@@]21C [MEDROXYPROGESTERONE ACETATE],Not Active,Not Active
OC[C@@H](O)[C@@H](O)[C@H](O)[C@H](O)CO [MANNITOL],Not Active,Not Active
CC(Cl)(Cl)Cl [TRICHLOROETHANE],Not Active,Not Active
LEAD(IV) ACETATE,Not Active,Not Active
O=C(c1ccccc1)c1ccc2n1CCC2C(=O)O (configuration not stated) [KETOROLAC],Not Active,Not Active

# Target: T2, Cholecystokinin receptor type A (Homo sapiens, UniProt P32238); further: in other assays of this panel Not Active means under 50% inhibition at 10 µM
# T2 sequence (P32238 whole entry): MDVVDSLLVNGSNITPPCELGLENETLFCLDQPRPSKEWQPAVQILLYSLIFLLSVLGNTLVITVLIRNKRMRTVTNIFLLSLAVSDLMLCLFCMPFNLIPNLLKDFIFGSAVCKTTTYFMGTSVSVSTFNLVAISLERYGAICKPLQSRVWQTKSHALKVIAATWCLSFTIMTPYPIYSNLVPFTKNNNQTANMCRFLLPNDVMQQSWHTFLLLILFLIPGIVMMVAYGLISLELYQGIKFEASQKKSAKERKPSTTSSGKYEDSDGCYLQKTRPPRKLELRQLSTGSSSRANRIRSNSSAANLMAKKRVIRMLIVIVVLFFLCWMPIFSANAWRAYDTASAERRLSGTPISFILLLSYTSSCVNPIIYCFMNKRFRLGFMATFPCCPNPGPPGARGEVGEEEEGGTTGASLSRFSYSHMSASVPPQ
# Format: cell membranes, Membrane
# Conditions: 1321-n1
Compound,IC50,Ki
CCOc1cc(N)c(Cl)cc1C(=O)NCC1CN(Cc2ccc(F)cc2)CCO1 (configuration not stated) [MOSAPRIDE],Not Active,
CC(=O)O[C@]1(C(C)=O)CC[C@H]2[C@@H]3C[C@H](C)C4=CC(=O)CC[C@]4(C)[C@H]3CC[C@@]21C [MEDROXYPROGESTERONE ACETATE],Not Active,
OC[C@@H](O)[C@@H](O)[C@H](O)[C@H](O)CO [MANNITOL],Not Active,
CC(Cl)(Cl)Cl [TRICHLOROETHANE],Not Active,
LEAD(IV) ACETATE,Not Active,Not Active
O=C(c1ccccc1)c1ccc2n1CCC2C(=O)O (configuration not stated) [KETOROLAC],Not Active,

# Target: T3, Muscarinic acetylcholine receptor M4 (Homo sapiens, UniProt P08173); further: in other assays of this panel Not Active means under 50% inhibition at 10 µM
# T3 sequence (P08173 whole entry): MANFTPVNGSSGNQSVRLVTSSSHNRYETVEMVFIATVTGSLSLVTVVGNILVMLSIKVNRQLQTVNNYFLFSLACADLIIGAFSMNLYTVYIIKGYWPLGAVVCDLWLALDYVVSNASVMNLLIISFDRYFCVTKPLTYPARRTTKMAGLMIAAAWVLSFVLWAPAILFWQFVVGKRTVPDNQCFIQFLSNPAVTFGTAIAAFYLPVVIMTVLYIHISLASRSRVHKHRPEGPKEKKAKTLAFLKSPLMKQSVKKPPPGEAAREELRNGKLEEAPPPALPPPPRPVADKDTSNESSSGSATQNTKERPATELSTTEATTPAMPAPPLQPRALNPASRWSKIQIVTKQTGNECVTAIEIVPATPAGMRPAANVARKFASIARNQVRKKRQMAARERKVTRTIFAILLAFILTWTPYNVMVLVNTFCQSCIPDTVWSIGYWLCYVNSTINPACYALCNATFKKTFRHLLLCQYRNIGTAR
# Format: cell membranes, CHO-K1, Membrane
# Conditions: cho-k1
Compound,IC50,Ki
CCOc1cc(N)c(Cl)cc1C(=O)NCC1CN(Cc2ccc(F)cc2)CCO1 (configuration not stated) [MOSAPRIDE],Not Active,
CC(=O)O[C@]1(C(C)=O)CC[C@H]2[C@@H]3C[C@H](C)C4=CC(=O)CC[C@]4(C)[C@H]3CC[C@@]21C [MEDROXYPROGESTERONE ACETATE],Not Active,
OC[C@@H](O)[C@@H](O)[C@H](O)[C@H](O)CO [MANNITOL],Not Active,
CC(Cl)(Cl)Cl [TRICHLOROETHANE],Not Active,
LEAD(IV) ACETATE,Not Active,Not Active
O=C(c1ccccc1)c1ccc2n1CCC2C(=O)O (configuration not stated) [KETOROLAC],Not Active,
